The text below walks through data of patent US8735388B2, “Heterocyclic compounds with affinity to muscarinic receptors” (Abbvie B. V. A., priority 2007, dated 2014).

Read-outs that look alike come from different tables or passages of the source. Some results are limits rather than exact numbers.

In data set [1] the target is T1, Muscarine M3 (GPCR-A-MA-ACH M3) (Homo sapiens, UniProt P20309).
T1 construct: expressed in transfected cells; host or cells: CHO cells
Put plainly: Muscarine M3 receptor binding. Conditions: human M3, CHO cells; receptor binding.

The nature of data set [2]: Stability in human liver homogenate (metabolic stability in vitro). Format: in vitro ADME. Particulars: read-out: t ½. The text has this:
DÖRJE, F., WESS, J., LAMBRECHT, G., TACKE, R., […], E. and BRANN, M. R. (1991) Antagonist binding profiles of five cloned human muscarinic receptor subtypes. J. Pharmacol. Exp. Ther., 256: 727-733. • […], M. H. (1990) Rat hippocampal muscarinic autoreceptors are similar to the M2 (cardiac) subtype: comparison with hippocampal M1, atrial M2 and ileal M3 receptors. Brit. J. Pharmacol., 99: 753-761. • PERALTA, E. G., ASHKENAZI, A., WINSLOW, J. W., SMITH, D. H., […], J. and CAPON, D. J. (1987) Distinct primary structures, ligand-binding properties and tissue-specific expression of four human muscarinic acetylcholine receptors. EMBO. J., 6: 3923-3929. Determination of Metabolic Stability (In Vitro)
Method used according to procedures described by DI, L. et al., Journal of Biomolecular Screening, Vol. 8, No. 4, 453-462 (2003).

Data set [3] has as its target T2, Muscarine M1 (GPCR-A-MA-ACH M1) (Homo sapiens, UniProt P11229).
T2 construct: expressed in transfected cells; host or cells: CHO cells
T2 sequence (P11229 1-460): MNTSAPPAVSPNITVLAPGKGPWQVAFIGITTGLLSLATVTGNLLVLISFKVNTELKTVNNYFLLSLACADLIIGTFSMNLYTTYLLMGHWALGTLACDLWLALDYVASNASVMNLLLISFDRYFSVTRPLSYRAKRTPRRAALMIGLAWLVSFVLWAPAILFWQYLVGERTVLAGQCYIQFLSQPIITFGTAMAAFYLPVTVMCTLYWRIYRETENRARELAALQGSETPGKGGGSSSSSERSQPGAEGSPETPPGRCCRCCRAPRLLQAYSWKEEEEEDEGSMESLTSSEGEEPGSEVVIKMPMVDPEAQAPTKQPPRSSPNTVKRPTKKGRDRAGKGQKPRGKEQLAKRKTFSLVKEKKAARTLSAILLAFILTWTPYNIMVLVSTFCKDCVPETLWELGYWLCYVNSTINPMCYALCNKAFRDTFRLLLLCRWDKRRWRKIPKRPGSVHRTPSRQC
Put plainly: Muscarine M1 receptor binding, 3H-Pirenzepine. Particulars: human M1, CHO cells, ligand 2 nM, 60 min/22° C., read-out: RB Musc. M1 3H-Pirenzepine pKi (converted). The method, boiled down:
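Human M1 ([3H]-pirenzepine), M3, and M4 ([3H]-4DAMP or [3H]-oxotremorine) receptor preparations incubated with radioligand and compound, first at 10 μM, then at 10-fold lower concentrations if inhibition exceeded 40%. Bound ligand separated by glass-fibre filtration and counted by scintillation. IC50 from Hill fit, converted to Ki via Cheng-Prusoff, reported as pKi.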

Data set [4] addresses T2, Muscarine M1 (GPCR-A-MA-ACH M1). Put plainly: Muscarine M1 cell-based functional assay (CHO cells, Ca2+ - FLIPR Fluorimetry). Particulars: human M1, CHO cells; agonist mode, reference agonist acetylcholine; read-out: Cell funct. Musc. M1 Agonism pEC50 (converted).
The target in data set [5] is T3, Muscarine M3 (GPCR-A-MA-ACH M3) (Cavia porcellus, UniProt H0W1Z3).
T3 construct: from tissue; host or cells: guinea pig ileum
T3 sequence (H0W1Z3 1-590): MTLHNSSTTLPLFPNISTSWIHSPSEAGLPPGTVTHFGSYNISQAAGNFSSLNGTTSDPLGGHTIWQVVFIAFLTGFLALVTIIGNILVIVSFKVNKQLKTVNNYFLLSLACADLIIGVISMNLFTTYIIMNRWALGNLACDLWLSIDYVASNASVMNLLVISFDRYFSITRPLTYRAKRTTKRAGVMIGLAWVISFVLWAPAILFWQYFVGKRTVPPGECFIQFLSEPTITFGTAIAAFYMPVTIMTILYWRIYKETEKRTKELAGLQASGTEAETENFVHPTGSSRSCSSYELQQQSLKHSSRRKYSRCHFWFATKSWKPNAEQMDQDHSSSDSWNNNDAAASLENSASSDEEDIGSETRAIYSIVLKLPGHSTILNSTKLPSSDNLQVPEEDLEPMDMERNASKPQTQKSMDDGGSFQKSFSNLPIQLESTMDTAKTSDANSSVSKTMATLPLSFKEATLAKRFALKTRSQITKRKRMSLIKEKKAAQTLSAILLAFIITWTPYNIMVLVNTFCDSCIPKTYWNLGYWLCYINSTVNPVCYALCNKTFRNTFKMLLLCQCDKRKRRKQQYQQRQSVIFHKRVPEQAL
Put plainly: Muscarine M3 functional assay, isolated organ (ileum), agonist and antagonist mode. Particulars: for EC50: read-out: Cell funct. Musc. M3 Agonism pEC50 (converted). More on the design: species or system Guinea Pig.

The target of data set [6] is T4, Muscarine M2 (GPCR-A-MA-ACH M2) (Cavia porcellus, UniProt H0VRN8).
T4 construct: from tissue; host or cells: guinea pig left atrium (electrically paced)
T4 sequence (H0VRN8 1-466): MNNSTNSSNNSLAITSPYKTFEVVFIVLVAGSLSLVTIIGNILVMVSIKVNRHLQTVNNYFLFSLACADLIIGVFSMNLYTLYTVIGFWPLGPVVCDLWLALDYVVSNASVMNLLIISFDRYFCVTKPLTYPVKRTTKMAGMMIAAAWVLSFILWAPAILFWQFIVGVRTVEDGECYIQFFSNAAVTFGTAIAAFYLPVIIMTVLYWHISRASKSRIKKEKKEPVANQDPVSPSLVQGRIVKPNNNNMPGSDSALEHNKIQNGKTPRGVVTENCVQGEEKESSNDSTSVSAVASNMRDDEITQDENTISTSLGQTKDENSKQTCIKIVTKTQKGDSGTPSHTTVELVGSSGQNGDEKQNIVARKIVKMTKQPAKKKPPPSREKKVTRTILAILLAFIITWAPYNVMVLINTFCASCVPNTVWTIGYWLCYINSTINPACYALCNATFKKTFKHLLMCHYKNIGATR
Put plainly: Muscarine M2 functional assay, isolated organ (left atrium, electrically paced), agonist and antagonist mode. More on the design: species or system Guinea Pig. Conditions: for EC50: read-out: Cell funct. Musc. M2 Agonism pEC50 (converted).

[7] abbreviates: read-out: Cell funct. Musc. M2 Antagonism pA2 (converted).

T1 sequence (P20309 whole entry): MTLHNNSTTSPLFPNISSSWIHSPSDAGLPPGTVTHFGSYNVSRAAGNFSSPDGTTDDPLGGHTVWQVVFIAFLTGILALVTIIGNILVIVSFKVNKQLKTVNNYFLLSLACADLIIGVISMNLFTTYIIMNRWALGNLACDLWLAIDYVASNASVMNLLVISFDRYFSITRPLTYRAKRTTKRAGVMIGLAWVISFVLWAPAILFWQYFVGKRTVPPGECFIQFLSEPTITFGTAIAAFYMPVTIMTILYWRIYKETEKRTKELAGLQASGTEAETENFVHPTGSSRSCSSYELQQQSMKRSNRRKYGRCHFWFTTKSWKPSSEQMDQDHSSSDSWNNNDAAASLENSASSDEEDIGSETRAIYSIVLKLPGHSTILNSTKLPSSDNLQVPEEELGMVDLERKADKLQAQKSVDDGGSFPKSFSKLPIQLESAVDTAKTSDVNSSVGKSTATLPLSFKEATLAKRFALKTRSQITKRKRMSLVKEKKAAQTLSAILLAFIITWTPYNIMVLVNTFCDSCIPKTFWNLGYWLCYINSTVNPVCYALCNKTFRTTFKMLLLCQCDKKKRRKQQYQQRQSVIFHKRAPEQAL

Consider `CCOCCSc1c[nH]nc1C1=CCCN(C)C1` [Compound 22O, 3-[4-(2-Ethoxy-ethylsulfanyl)-1H-pyrazol-3-yl]-1,2,5,6-tetrahydro-1-methylpyridine], for which the Ki was 2510 nM in data set [1] and 7940 nM in data set [3]. In data set [2], the half-life turned out to be 245 min. Further, the EC50 in data set [4] was 31.6 nM; in data set [5], greater than 1000 nM; in data set [6], greater than 1000 nM. Moreover, the Kb in data set [5] is greater than 1000 nM; in data set [6], 20 nM.
With `CN1CCC=C(c2n[nH]cc2SCCC=C(F)F)C1` [Compound 22J, 3-[4-(4,4-Difluoro-but-3enylsulfanyl)-1H-pyrazol-3-yl]-1,2,5,6-tetrahydro-1-methylpyridine], the figures for the Ki in data set [1] and in data set [3] were 316 nM and 631 nM, respectively. For the same compound, in data set [2], the half-life was 129 min. The figures for the EC50 in data set [4], in data set [5] and in data set [6] were 39.8 nM, greater than 1000 nM and greater than 1000 nM, respectively. The Kb in data set [5] and in data set [6] (setting [7]) was greater than 1000 nM throughout.
For the compound `CCCCCOc1c[nH]nc1C1=CCCN(C)C1` [Compound 33G, 3-(4-Pentyloxy-1H-pyrazol-3-yl)-1,2,5,6-tetrahydro-1-methylpyridine], the Ki in data set [1] is 794 nM; in data set [3], 1580 nM. Further, the half-life in data set [2] was 56 min. The EC50 in data set [4] was 25.1 nM; in data set [5], greater than 1000 nM; in data set [6], greater than 1000 nM. The Kb in data set [5] and in data set [6] (setting [7]) was greater than 1000 nM each time.
Take `C=CCCCOc1c[nH]nc1C1=CCCN(C)C1` [Compound 33F, 3-(4-Pent-4-enyloxy-1H-pyrazol-3-yl)-1,2,5,6-tetrahydro-1-methylpyridine]: the Ki in data set [1] was 1000 nM; in data set [3], 3980 nM. Moreover, the half-life in data set [2] was found to be 230 min. The results for the EC50 in data set [4], in data set [5] and in data set [6] were 39.8 nM, greater than 1000 nM and greater than 1000 nM, respectively. For the same compound, the Kb in data set [5] and in data set [6] (setting [7]) was greater than 1000 nM each time.
As for `C=CCCCSc1c[nH]nc1C1=CCCN(C)C1` [Compound 22L], the Ki in data set [1] is 316 nM; in data set [3], 794 nM. The half-life in data set [2] was 56 min. Besides, the results for the EC50 in data set [4], in data set [5] and in data set [6] were 10 nM, greater than 1000 nM and greater than 1000 nM, respectively. Moreover, the Kb in data set [5] and in data set [6] (setting [7]) was greater than 1000 nM in each case.
